This passage reports Ki results from ChEMBL document CHEMBL1124797, “A model for the antagonist binding site on the adenosine A1 receptor, based on steric, electrostatic, and hydrophobic properties” (J Med Chem, 1990).

The target in the test is T1, Adenosine receptor A1 (Rattus norvegicus, UniProt P25099).
T1 sequence (P25099 whole entry): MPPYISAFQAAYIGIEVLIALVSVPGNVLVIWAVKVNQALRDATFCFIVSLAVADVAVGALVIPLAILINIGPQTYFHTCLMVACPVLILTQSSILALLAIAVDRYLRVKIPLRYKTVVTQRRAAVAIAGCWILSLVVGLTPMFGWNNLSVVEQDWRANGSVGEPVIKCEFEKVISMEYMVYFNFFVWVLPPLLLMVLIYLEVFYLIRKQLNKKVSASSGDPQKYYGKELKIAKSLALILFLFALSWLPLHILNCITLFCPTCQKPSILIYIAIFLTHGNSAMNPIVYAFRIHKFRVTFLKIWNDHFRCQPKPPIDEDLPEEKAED
The experiment in a line: Inhibition of [3H]CHA binding to Adenosine A1 receptor in rat brain membranes. The test is classed as cell membranes.

For the compound `CCCn1c(=O)c2[nH]c(-c3ccc(Cl)cc3N)nc2n(CCC)c1=O`, the Ki (usually a measure of affinity in units of concentration, obtained from inhibition or displacement) turned out to be 4.8 nM.

As for `Cc1nn(C)c2c(=O)[nH]c(-c3ccc(Cl)cc3N)nc12`, the affinity corresponds to a Ki of 310 nM.
